Measurements from patent US10597388B2, “Pyridazinone herbicides” (FMC CORPORATION, priority 2014, dated 2020).

Assays:
Type in all cases: in vivo
[1] = tested on: oat, wild (wild oat, Avena fatua); experiment: Test C greenhouse herbicide test, postemergence
Procedure, shortened: (§1)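 Greenhouse postemergence spray on plants 2–18 cm tall; response judged visually after 13–15 d relative to untreated controls using a 0 (none) to 100 (full control) scale.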

kochia (Kochia scoparia) = experiment: Test C greenhouse herbicide test, postemergence
Procedure, shortened: as §1

corn (Zea mays) = experiment: Test C greenhouse herbicide test, pre- and postemergence
Procedure, shortened: (§2)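 Greenhouse pots; pre-em on seeded loam:sand blend, post-em on 2–18 cm plants (1–4 leaf) in sphagnum peat/vermiculite medium. Formulation: non-phytotoxic solvent + surfactant. Read-out: visual % control (0–100) vs controls at 13–15 d.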

[2] = tested on: blackgrass (Alopecurus myosuroides); experiment: as above
Procedure, shortened: as §2

[3] = tested on: wheat (winter wheat, Triticum aestivum); experiment: as above
Procedure, shortened: as §2

[4] = tested on: morningglory (Ipomoea coccinea); experiment: as above
Procedure, shortened: as §2

[5] = tested on: crabgrass, large (large crabgrass, Digitaria sanguinalis); experiment: as above
Procedure, shortened: as §2

[6] = tested on: johnsongrass (Sorghum halepense); experiment: as above
Procedure, shortened: as §2

[7] = tested on: waterhemp (common waterhemp, Amaranthus rudis); experiment: as above
Procedure, shortened: as §2

soybean (Glycine max) = experiment: as above
Procedure, shortened: as §2

[8] = tested on: pigweed (Amaranthus retroflexus); experiment: as above
Procedure, shortened: as §2

[9] = tested on: barnyardgrass (Echinochloa crus-galli); experiment: as above
Procedure, shortened: as §2

[10] = tested on: oilseed rape (Brassica napus); experiment: as above
Procedure, shortened: as §2

[11] = tested on: foxtail, giant (giant foxtail, Setaria faberii); experiment: as above
Procedure, shortened: as §2

[12] = tested on: ragweed (common ragweed, Ambrosia elatior); experiment: as above
Procedure, shortened: as §2

[13] = tested on: velvetleaf (Abutilon theophrasti); experiment: as above
Procedure, shortened: as §2

[14] = tested on: galium (catchweed bedstraw, Galium aparine); experiment: as above
Procedure, shortened: as §2

[15] = Postemergence, 31 g ai/ha, 0 to 100 scale (0 no effect, 100 complete control)
[16] = Postemergence, 125 g ai/ha, scale 0 to 100, 0 is no effect, 100 is complete control
[17] = Postemergence, 250 g ai/ha, scale 0 to 100, 0 no effect, 100 complete control, 13 to 15 d
[18] = postemergence, 62 g ai/ha, scale 0 to 100, 0 no effect, 100 complete control
[19] = Preemergence, 31 g ai/ha, scale 0 to 100, 0 is no effect, 100 is complete control
[20] = Preemergence, 62 g ai/ha, scale 0 to 100, 0 is no effect, 100 is complete control
[21] = Preemergence, 125 g ai/ha, scale 0 to 100, 0 is no effect, 100 is complete control
[22] = Preemergence, 250 g ai/ha, scale 0 to 100 (0 no effect, 100 complete control)

COc1nn(C)c(=O)c(-c2c(C)ccc3ccccc23)c1O [Compound 54]
Oat, Wild plant response rating [1, 15]: 45 | Plant response rating, Oat, Wild [1, 16]: 60 | Plant response rating, Oat, Wild [1, 17]: 85 | Oat, Wild plant response rating [1, 18]: 50 | Kochia plant response rating (kochia (Kochia scoparia); [15]): 50 | Plant response rating, Kochia (kochia (Kochia scoparia); [16]): 90 | Plant response rating, Kochia (kochia (Kochia scoparia); [17]): 95 | Kochia plant response rating (kochia (Kochia scoparia); [18]): 90 | Corn plant response rating (corn (Zea mays); [15]): 0 | Plant response rating, Corn (corn (Zea mays); [16]): 5 | Plant response rating, Corn (corn (Zea mays); [17]): 10 | Plant response rating, Corn (corn (Zea mays); [19]): 0 | Plant response rating, Corn (corn (Zea mays); [20]): 10 | Plant response rating, Corn (corn (Zea mays); [21]): 10 | Corn plant response rating (corn (Zea mays); [22]): 0 | Corn plant response rating (corn (Zea mays); [18]): 0 | Blackgrass plant response rating [2, 15]: 15 | Plant response rating, Blackgrass [2, 16]: 60 | Plant response rating, Blackgrass [2, 17]: 40 | Plant response rating, Blackgrass [2, 19]: 50 | Plant response rating, Blackgrass [2, 20]: 55 | Plant response rating, Blackgrass [2, 21]: 55 | Blackgrass plant response rating [2, 22]: 80 | Blackgrass plant response rating [2, 18]: 5 | Wheat plant response rating [3, 15]: 0 | Plant response rating, Wheat [3, 16]: 0 | Plant response rating, Wheat [3, 17]: 0 | Plant response rating, Wheat [3, 19]: 0 | Plant response rating, Wheat [3, 20]: 0 | Plant response rating, Wheat [3, 21]: 0 | Wheat plant response rating [3, 22]: 0 | Wheat plant response rating [3, 18]: 50 | Morningglory plant response rating [4, 15]: 95 | Plant response rating, Morningglory [4, 16]: 98 | Plant response rating, Morningglory [4, 17]: 100 | Plant response rating, Morningglory [4, 19]: 80 | Plant response rating, Morningglory [4, 20]: 90 | Plant response rating, Morningglory [4, 21]: 95 | Morningglory plant response rating [4, 22]: 98 | Morningglory plant response rating [4, 18]: 98 | Crabgrass, Large plant response rating [5, 15]: 20 | Plant response rating, Crabgrass, Large [5, 16]: 35 | Plant response rating, Crabgrass, Large [5, 17]: 55 | Plant response rating, Crabgrass, Large [5, 19]: 40 | Plant response rating, Crabgrass, Large [5, 20]: 40 | Plant response rating, Crabgrass, Large [5, 21]: 75 | Crabgrass, Large plant response rating [5, 22]: 60 | Crabgrass, Large plant response rating [5, 18]: 25 | Johnsongrass plant response rating [6, 15]: 5 | Plant response rating, Johnsongrass [6, 16]: 10 | Plant response rating, Johnsongrass [6, 17]: 10 | Plant response rating, Johnsongrass [6, 19]: 0 | Plant response rating, Johnsongrass [6, 20]: 0 | Plant response rating, Johnsongrass [6, 21]: 5 | Johnsongrass plant response rating [6, 22]: 10 | Johnsongrass plant response rating [6, 18]: 5 | Waterhemp plant response rating [7, 15]: 85 | Plant response rating, Waterhemp [7, 16]: 95 | Plant response rating, Waterhemp [7, 17]: 95 | Plant response rating, Waterhemp [7, 19]: 98 | Plant response rating, Waterhemp [7, 20]: 100 | Plant response rating, Waterhemp [7, 21]: 100 | Waterhemp plant response rating [7, 22]: 100 | Waterhemp plant response rating [7, 18]: 90 | Soybean plant response rating (soybean (Glycine max); [15]): 5 | Plant response rating, Soybean (soybean (Glycine max); [16]): 10 | Plant response rating, Soybean (soybean (Glycine max); [17]): 10 | Plant response rating, Soybean (soybean (Glycine max); [19]): 0 | Plant response rating, Soybean (soybean (Glycine max); [20]): 90 | Plant response rating, Soybean (soybean (Glycine max); [21]): 0 | Soybean plant response rating (soybean (Glycine max); [22]): 20 | Soybean plant response rating (soybean (Glycine max); [18]): 5 | Pigweed plant response rating [8, 15]: 85 | Plant response rating, Pigweed [8, 16]: 98 | Plant response rating, Pigweed [8, 17]: 100 | Plant response rating, Pigweed [8, 19]: 100 | Plant response rating, Pigweed [8, 20]: 100 | Plant response rating, Pigweed [8, 21]: 100 | Pigweed plant response rating [8, 22]: 100 | Pigweed plant response rating [8, 18]: 95 | Barnyardgrass plant response rating [9, 15]: 15 | Plant response rating, Barnyardgrass [9, 16]: 55 | Plant response rating, Barnyardgrass [9, 17]: 20 | Plant response rating, Barnyardgrass [9, 19]: 15 | Plant response rating, Barnyardgrass [9, 20]: 35 | Plant response rating, Barnyardgrass [9, 21]: 65 | Barnyardgrass plant response rating [9, 22]: 85 | Barnyardgrass plant response rating [9, 18]: 30 | Oilseed Rape plant response rating [10, 15]: 70 | Plant response rating, Oilseed Rape [10, 16]: 40 | Plant response rating, Oilseed Rape [10, 17]: 70 | Plant response rating, Oilseed Rape [10, 19]: 70 | Plant response rating, Oilseed Rape [10, 20]: 90 | Plant response rating, Oilseed Rape [10, 21]: 90 | Oilseed Rape plant response rating [10, 22]: 100 | Oilseed Rape plant response rating [10, 18]: 80 | Foxtail, Giant plant response rating [11, 15]: 20 | Plant response rating, Foxtail, Giant [11, 16]: 75 | Plant response rating, Foxtail, Giant [11, 17]: 90 | Plant response rating, Foxtail, Giant [11, 19]: 70 | Plant response rating, Foxtail, Giant [11, 20]: 80 | Plant response rating, Foxtail, Giant [11, 21]: 75 | Foxtail, Giant plant response rating [11, 22]: 90 | Foxtail, Giant plant response rating [11, 18]: 55 | Ragweed plant response rating [12, 15]: 90 | Plant response rating, Ragweed [12, 16]: 95 | Plant response rating, Ragweed [12, 17]: 98 | Plant response rating, Ragweed [12, 19]: 90 | Plant response rating, Ragweed [12, 20]: 90 | Plant response rating, Ragweed [12, 21]: 95 | Ragweed plant response rating [12, 22]: 100 | Ragweed plant response rating [12, 18]: 95 | Velvetleaf plant response rating [13, 15]: 45 | Plant response rating, Velvetleaf [13, 16]: 98 | Plant response rating, Velvetleaf [13, 17]: 100 | Plant response rating, Velvetleaf [13, 19]: 80 | Plant response rating, Velvetleaf [13, 20]: 85 | Plant response rating, Velvetleaf [13, 21]: 90 | Velvetleaf plant response rating [13, 22]: 95 | Velvetleaf plant response rating [13, 18]: 90 | Galium plant response rating [14, 15]: 95 | Plant response rating, Galium [14, 16]: 98 | Plant response rating, Galium [14, 17]: 98 | Plant response rating, Galium [14, 19]: 95 | Plant response rating, Galium [14, 20]: 95 | Plant response rating, Galium [14, 21]: 100 | Galium plant response rating [14, 22]: 100 | Galium plant response rating [14, 18]: 98
